Laboratory results published in publication PMC5564600 (Oncotarget, 2017).

Experiments:
Test in all cases: biochemical
Type in all cases: binding
panel of 442 kinases [1] = target: T1, panel of 442 kinases (Homo sapiens, UniProt O43293); settings: DAPK3; for remaining activity at 1 µM: read-out: % of control at 1 µM
T1 construct: purchased Ambit Biosciences (scanMAXX KINOMEscan)

panel of 442 kinases [2] = target: T2, panel of 442 kinases (Homo sapiens, UniProt O94804); settings: kinase LOK; for remaining activity at 1 µM: read-out: % of control at 1 µM
T2 construct: purchased Ambit Biosciences (scanMAXX KINOMEscan)
T2 sequence (O94804 whole entry): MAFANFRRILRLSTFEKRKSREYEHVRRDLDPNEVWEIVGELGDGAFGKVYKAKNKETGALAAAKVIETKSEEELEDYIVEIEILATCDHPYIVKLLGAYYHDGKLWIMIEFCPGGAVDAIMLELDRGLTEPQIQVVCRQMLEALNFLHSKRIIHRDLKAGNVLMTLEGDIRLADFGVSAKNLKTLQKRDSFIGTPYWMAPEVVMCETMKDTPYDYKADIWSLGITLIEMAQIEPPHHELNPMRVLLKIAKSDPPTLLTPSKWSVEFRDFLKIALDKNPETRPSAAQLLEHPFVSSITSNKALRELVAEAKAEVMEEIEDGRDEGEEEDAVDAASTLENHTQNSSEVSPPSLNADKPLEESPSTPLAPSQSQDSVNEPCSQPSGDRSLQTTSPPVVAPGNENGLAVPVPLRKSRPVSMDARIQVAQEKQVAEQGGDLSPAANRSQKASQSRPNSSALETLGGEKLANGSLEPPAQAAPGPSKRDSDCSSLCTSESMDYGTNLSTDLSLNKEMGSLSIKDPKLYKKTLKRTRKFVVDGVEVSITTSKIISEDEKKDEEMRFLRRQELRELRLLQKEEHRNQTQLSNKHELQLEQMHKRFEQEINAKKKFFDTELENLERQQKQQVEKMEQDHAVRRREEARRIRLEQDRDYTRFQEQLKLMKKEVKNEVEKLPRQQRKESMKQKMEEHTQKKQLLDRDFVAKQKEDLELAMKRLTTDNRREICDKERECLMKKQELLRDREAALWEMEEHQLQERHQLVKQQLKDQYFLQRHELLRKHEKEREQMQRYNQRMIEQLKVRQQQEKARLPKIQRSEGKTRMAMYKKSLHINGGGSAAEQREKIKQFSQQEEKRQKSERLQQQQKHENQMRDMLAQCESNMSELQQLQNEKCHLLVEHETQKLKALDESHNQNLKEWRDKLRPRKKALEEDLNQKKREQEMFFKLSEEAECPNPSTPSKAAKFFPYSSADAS

panel of 442 kinases [3] = target: T3, panel of 442 kinases (Homo sapiens, UniProt P00519, M351T); settings: ABL1(M351T)-phosphorylated; for remaining activity at 1 µM: read-out: % of control at 1 µM
T3 construct: purchased Ambit Biosciences (scanMAXX KINOMEscan)

panel of 442 kinases [4] = target: T4, panel of 442 kinases (Homo sapiens, UniProt P10721, L576P); settings: kinase KIT(L576P); for remaining activity at 1 µM: read-out: % of control at 1 µM
T4 construct: purchased Ambit Biosciences (scanMAXX KINOMEscan)
T4 sequence (P10721 26-976 L576P): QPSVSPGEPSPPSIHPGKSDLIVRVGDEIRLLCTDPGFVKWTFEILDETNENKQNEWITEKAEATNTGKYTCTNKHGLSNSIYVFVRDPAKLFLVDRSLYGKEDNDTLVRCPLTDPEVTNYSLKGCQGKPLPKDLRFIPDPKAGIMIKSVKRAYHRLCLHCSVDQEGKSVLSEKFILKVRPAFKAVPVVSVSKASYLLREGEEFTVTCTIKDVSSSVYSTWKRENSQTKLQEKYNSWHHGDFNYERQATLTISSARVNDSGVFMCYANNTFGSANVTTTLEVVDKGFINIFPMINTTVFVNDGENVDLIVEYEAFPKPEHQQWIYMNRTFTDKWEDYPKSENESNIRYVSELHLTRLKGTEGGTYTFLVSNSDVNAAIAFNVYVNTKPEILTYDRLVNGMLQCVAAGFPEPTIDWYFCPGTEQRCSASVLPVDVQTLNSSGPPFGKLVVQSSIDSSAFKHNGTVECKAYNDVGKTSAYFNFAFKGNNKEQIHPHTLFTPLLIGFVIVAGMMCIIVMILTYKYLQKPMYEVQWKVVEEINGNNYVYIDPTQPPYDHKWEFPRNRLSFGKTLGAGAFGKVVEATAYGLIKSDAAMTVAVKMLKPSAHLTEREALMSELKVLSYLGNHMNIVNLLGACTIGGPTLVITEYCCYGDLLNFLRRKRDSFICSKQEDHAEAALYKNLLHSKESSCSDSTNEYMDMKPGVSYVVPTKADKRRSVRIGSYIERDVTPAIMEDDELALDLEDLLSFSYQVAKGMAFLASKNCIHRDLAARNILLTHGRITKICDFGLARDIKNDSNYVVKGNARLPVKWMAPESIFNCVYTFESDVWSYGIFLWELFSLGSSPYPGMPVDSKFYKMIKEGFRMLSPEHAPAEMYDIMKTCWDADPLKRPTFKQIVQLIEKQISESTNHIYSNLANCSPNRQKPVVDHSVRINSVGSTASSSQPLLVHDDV

panel of 442 kinases [5] = target: T5, panel of 442 kinases (Homo sapiens, UniProt P27037); settings: ACVR2A; for remaining activity at 1 µM: read-out: % of control at 1 µM
T5 construct: purchased Ambit Biosciences (scanMAXX KINOMEscan)
T5 sequence (P27037 20-513): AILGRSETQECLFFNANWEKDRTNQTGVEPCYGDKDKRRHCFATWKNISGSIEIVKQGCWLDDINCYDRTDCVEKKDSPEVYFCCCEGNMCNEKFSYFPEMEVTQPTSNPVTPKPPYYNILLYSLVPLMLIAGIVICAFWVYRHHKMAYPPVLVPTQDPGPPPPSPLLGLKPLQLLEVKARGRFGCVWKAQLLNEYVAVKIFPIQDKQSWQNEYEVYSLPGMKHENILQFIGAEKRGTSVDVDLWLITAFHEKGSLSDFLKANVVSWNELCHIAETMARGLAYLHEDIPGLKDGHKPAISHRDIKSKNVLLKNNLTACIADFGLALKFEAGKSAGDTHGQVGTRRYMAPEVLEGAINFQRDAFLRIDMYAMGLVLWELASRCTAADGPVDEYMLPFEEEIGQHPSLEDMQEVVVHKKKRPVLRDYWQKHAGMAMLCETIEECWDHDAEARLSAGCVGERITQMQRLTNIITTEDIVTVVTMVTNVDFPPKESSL

panel of 442 kinases [6] = target: T6, panel of 442 kinases (Homo sapiens, UniProt P36888, N841I); settings: kinase FLT3(N841I); for remaining activity at 1 µM: read-out: % of control at 1 µM
T6 construct: purchased Ambit Biosciences (scanMAXX KINOMEscan)
T6 sequence (P36888 27-993 N841I): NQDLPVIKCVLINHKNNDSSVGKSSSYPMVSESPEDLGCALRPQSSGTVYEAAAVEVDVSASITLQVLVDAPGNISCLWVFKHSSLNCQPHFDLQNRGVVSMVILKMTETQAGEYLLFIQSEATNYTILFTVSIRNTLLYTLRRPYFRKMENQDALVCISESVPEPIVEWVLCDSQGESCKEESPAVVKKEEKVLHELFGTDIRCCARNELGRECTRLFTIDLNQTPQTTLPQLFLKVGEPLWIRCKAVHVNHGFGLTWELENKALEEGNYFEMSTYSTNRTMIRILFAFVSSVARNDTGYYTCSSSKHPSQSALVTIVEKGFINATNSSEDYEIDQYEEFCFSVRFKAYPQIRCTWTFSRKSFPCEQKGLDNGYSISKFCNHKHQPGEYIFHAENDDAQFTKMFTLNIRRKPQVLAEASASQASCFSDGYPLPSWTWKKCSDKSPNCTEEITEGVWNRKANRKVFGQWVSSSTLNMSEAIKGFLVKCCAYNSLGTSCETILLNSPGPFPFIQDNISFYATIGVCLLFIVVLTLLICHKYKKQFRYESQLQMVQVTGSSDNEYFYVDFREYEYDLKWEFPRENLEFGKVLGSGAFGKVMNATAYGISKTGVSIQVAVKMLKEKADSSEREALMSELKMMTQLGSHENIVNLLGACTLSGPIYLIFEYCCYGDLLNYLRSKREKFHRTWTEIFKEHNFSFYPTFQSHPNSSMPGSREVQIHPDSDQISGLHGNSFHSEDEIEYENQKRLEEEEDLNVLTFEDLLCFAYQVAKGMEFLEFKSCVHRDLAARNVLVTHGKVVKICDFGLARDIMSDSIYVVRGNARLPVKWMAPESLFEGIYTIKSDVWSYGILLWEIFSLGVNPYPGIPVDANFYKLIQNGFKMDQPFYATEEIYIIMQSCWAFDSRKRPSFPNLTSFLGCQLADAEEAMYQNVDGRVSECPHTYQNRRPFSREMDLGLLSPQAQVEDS

panel of 442 kinases [7] = target: T7, panel of 442 kinases (Homo sapiens, UniProt P37023); settings: ACVRL1; for remaining activity at 1 µM: read-out: % of control at 1 µM
T7 construct: purchased Ambit Biosciences (scanMAXX KINOMEscan)
T7 sequence (P37023 22-503): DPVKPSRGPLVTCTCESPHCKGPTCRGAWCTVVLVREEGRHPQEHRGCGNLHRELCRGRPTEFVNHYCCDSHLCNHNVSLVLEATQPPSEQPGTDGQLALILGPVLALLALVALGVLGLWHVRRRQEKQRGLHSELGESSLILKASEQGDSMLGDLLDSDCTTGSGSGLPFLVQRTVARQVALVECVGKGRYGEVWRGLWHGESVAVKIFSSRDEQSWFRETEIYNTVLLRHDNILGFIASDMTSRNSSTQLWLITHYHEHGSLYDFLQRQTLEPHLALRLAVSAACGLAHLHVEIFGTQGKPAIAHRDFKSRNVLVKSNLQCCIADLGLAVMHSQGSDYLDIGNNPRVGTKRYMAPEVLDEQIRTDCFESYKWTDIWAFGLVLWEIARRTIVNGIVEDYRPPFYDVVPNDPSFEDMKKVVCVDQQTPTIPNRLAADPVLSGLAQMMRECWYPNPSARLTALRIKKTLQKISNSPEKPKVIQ

panel of 442 kinases [8] = target: T8, panel of 442 kinases (Homo sapiens, UniProt P42684); settings: ABL2; for remaining activity at 1 µM: read-out: % of control at 1 µM
T8 construct: purchased Ambit Biosciences (scanMAXX KINOMEscan)
T8 sequence (P42684 whole entry): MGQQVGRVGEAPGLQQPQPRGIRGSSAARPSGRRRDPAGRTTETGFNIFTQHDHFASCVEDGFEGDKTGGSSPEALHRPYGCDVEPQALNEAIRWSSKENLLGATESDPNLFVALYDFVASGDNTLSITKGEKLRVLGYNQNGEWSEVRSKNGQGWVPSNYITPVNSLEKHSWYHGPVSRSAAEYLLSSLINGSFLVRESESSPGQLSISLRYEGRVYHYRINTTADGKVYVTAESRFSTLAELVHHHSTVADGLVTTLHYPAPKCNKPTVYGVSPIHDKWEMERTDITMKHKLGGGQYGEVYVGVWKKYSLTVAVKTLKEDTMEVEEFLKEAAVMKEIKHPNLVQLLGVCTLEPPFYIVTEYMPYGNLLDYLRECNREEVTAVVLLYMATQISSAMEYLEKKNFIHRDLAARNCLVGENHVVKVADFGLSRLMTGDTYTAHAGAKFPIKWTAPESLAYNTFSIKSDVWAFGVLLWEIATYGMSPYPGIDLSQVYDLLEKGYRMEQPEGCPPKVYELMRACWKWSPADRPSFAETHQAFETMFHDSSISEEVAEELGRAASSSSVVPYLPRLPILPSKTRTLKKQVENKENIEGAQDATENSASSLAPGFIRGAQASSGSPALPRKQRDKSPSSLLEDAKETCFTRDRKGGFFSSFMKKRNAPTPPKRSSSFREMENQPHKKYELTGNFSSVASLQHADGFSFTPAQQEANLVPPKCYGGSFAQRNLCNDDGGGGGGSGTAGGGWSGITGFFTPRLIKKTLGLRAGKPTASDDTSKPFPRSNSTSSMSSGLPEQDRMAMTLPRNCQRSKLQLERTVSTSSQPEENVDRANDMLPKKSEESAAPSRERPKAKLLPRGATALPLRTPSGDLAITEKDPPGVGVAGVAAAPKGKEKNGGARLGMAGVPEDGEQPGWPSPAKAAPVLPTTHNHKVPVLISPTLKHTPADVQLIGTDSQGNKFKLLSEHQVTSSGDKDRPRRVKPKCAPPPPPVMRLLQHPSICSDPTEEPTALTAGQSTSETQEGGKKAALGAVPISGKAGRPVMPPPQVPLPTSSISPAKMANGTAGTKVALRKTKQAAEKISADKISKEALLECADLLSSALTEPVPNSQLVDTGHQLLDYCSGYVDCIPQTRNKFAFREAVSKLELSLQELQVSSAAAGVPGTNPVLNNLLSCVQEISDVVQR

panel of 442 kinases [9] = target: T9, panel of 442 kinases (Homo sapiens, UniProt P52564); settings: kinase MEK6; for remaining activity at 1 µM: read-out: % of control at 1 µM
T9 construct: purchased Ambit Biosciences (scanMAXX KINOMEscan)
T9 sequence (P52564 1-334): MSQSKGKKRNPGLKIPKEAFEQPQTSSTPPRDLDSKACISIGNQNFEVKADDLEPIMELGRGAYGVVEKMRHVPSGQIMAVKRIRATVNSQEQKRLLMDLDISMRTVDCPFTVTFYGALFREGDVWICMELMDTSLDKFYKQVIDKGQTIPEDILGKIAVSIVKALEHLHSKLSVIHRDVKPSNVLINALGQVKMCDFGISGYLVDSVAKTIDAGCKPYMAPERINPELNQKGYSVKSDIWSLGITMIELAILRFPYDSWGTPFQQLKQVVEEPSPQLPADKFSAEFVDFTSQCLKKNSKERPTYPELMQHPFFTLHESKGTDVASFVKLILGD

panel of 442 kinases [10] = target: T10, panel of 442 kinases (Homo sapiens, UniProt Q05655); settings: kinase PRKCD; for remaining activity at 1 µM: read-out: PRKCD (% of control at 1 µM)
T10 construct: purchased Ambit Biosciences (scanMAXX KINOMEscan)
T10 sequence (Q05655 whole entry): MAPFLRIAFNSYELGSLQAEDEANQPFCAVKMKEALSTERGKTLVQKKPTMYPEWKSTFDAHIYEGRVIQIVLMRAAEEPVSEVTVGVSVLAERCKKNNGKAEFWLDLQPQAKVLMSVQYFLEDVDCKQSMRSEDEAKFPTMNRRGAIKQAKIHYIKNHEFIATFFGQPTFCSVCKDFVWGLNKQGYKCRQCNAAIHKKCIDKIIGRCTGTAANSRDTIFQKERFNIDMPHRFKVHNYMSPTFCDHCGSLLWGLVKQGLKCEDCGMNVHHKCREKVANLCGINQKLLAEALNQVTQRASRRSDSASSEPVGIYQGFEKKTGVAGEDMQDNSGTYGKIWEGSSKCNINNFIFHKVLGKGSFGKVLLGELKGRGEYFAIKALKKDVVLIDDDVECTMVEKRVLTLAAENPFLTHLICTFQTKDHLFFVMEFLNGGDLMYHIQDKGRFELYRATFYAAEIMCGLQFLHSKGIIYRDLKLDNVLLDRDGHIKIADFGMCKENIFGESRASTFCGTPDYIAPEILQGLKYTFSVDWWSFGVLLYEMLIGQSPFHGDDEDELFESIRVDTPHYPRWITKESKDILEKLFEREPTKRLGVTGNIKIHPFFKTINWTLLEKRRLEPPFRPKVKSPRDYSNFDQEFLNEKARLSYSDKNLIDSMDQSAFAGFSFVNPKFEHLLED

panel of 442 kinases [11] = target: T11, panel of 442 kinases (Homo sapiens, UniProt Q16620); settings: kinase TRKB; for remaining activity at 1 µM: read-out: TRKB (% of control at 1 µM)
T11 construct: purchased Ambit Biosciences (scanMAXX KINOMEscan)

panel of 442 kinases [12] = target: T12, panel of 442 kinases (Homo sapiens, UniProt Q96BR1); settings: kinase SGK3; for remaining activity at 1 µM: read-out: SGK3 (% of control at 1 µM)
T12 construct: purchased Ambit Biosciences (scanMAXX KINOMEscan)
T12 sequence (Q96BR1 1-496): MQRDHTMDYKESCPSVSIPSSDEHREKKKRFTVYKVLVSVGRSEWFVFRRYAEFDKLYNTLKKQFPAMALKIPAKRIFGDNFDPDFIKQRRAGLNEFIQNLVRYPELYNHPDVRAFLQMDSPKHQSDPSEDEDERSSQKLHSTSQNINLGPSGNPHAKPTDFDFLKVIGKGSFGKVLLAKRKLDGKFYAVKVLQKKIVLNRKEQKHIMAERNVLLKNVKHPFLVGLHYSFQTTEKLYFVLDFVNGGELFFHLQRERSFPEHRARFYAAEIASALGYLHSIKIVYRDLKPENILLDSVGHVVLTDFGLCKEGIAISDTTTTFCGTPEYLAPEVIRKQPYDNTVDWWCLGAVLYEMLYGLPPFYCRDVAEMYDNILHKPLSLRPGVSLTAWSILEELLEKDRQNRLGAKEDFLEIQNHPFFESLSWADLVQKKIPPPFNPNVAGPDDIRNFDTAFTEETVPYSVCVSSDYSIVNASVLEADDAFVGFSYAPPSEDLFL

[13] = 10 µM, read-out: % of control at 10 µM

Row | SMILES | remaining activity at 1 µM (panel of 442 kinases [1]) [%] | remaining activity at 1 µM (panel of 442 kinases [2]) [%] | remaining activity at 1 µM (panel of 442 kinases [3]) [%] | remaining activity at 1 µM (panel of 442 kinases [4]) [%] | remaining activity at 1 µM (panel of 442 kinases [5]) [%] | remaining activity at 1 µM (panel of 442 kinases [6]) [%] | remaining activity at 1 µM (panel of 442 kinases [7]) [%] | remaining activity at 1 µM (panel of 442 kinases [8]) [%] | remaining activity at 1 µM (panel of 442 kinases [9]) [%] | remaining activity at 1 µM (panel of 442 kinases [10]) [%] | remaining activity at 1 µM (panel of 442 kinases [11]) [%] | remaining activity at 1 µM (panel of 442 kinases [12]) [%] | further results
1 | Nc1cc(C(F)(F)F)c(-c2cc(N3CCOCC3)nc(N3CCOCC3)n2)cn1 [Buparlisib] | 100 | 92 | 90 | 80 | 100 | 86 | 84 | 100 | 90 | 100 | 96 | 79 | remaining activity at 10 µM (panel of 442 kinases [1]; [13]): 100%; remaining activity at 10 µM (panel of 442 kinases [2]; [13]): 100%; remaining activity at 10 µM (panel of 442 kinases [3]; [13]): 97%; remaining activity at 10 µM (panel of 442 kinases [4]; [13]): 24%; remaining activity at 10 µM (panel of 442 kinases [5]; [13]): 100%; remaining activity at 10 µM (panel of 442 kinases [6]; [13]): 97%; remaining activity at 10 µM (panel of 442 kinases [7]; [13]): 100%; remaining activity at 10 µM (panel of 442 kinases [8]; [13]): 100%; remaining activity at 10 µM (panel of 442 kinases [9]; [13]): 85%; remaining activity at 10 µM (panel of 442 kinases [10]; 10 µM, read-out: PRKCD (% of control at 10 µM)): 100%; remaining activity at 10 µM (panel of 442 kinases [11]; 10 µM, read-out: TRKB (% of control at 10 µM)): 80%; remaining activity at 10 µM (panel of 442 kinases [12]; 10 µM, read-out: SGK3 (% of control at 10 µM)): 100%
2 | Cn1c(=O)n(-c2ccc(C(C)(C)C#N)cc2)c2c3cc(-c4cnc5ccccc5c4)ccc3ncc21 [Dactolisib, 2-methyl-2-[4-(3-methyl-2-oxo-8-quinolin-3-yl-2,3-dihydroimidazo[4,5-c]quinolin-1-yl)-phenyl] propionitrile] | 100 | 100 | 89 | 59 | 89 | 24 | 94 | 100 | 96 | 86 | 61 | 100 | 
3 | COc1ncc(-c2ccc3nccc(-c4ccnnc4)c3c2)cc1NS(=O)(=O)c1ccc(F)cc1F [Omipalisib] | 100 | 100 | 94 | 90 | 100 | 70 | 100 | 100 | 51 | 74 | 100 | 92 | 
4 | FC(F)c1nc2ccccc2n1-c1nc(N2CCOCC2)nc(N2CCOCC2)n1 [ZSTK474, 2-(difluoromethyl)-1-[4,6-di(4-morpholinyl)-1,3,5-triazin-2-yl]-1H-benzimidazole] | 100 | 100 | 100 | 100 | 100 | 90 | 100 | 100 | 97 | 100 | 100 | 87 | 
